These results are taken from paper PMC5697638, “Identification of a Potent Phosphoinositide 3‐Kinase Pan Inhibitor Displaying a Strategic Carboxylic Acid Group and Development of Its Prodrugs” (Chemmedchem, 2017).

One data set concerns PC3 cells. Put plainly: PC3 cell proliferation (MTT). Format: cell-based. Details: key to Cell proliferation: active: Active: able to reduce proliferation to an extent greater than 50 %; inactive: able to reduce proliferation to an extent less than 50 %. To be noted: PC3 cells, 10 μM of each prodrug. As to the method:
The biological activity of each prodrug was tested by analyzing their ability to decrease PC3 proliferation as a rapid test to evaluate the PI3Ks inhibitory activity after hydrolysis in a cell‐based assay. […] The choice of using such a cut‐off was due to the intent to identify rapidly which prodrug could be hydrolyzed in the assay to release the active compound. As expected, a good correlation between rate of hydrolysis and cellular activity was observed, and esters 64–68 and 70–73 were determined to be good candidates for topical use. We decided to focus our attention on ester 64, as its half‐life was a good compromise for a prodrug. The EC50 value of this ester was then evaluated on PC3 cells, and a value of (2.3±0.8) μM was obtained.
Cell proliferation: PC3 cell proliferation was measured with a 3‐(4,5‐dimethyl thiazol‐2‐yl)‐2,5‐diphenyltetrazolium bromide (MTT)‐based colorimetric assay (#11 465 007 001 Roche Diagnostic GmbH, Germany). PC3 cells were seeded in a 96‐well plate at a concentration of 10^4 cells mL^−1. PC3 cells were treated for 72 h with increasing concentrations of 64, and MTT was added. After ON solubilization of the MTT metabolite, formazan, the absorbance (λ=550–600 nm absorbance, with a reference wavelength of 650 nm) of each well was read in a multi‐well reader (Glomax multi detection system, Promega, model number 9301‐010). The percentage of proliferating cells was calculated by relating each absolute value to the control intended as PC3 cells treated with DMSO alone. An IC50 value was then derived by plotting all data on a dose–response curve (Graph Pad software) by using nonlinear regression fit (equation [log agonist] versus response).

Data set [1] in a line: metabolic stability in rat liver microsomes (RLM). The class given is in vitro ADME. The note with it: RLM, 50 μM substrate, with NADPH; for Residual microsomal substrate (t=60 min): LC–UV; for substrate depletion: 60 min. How it is done:
(§1) Twelve esters were prepared (see the Experimental Section for their synthesis and the Supporting Information for chromatographic methods) and evaluated in terms of metabolic stability. For this task, a combined approach based on microsomal and plasmatic stability assays was exploited considering the relevance of the plasmatic and hepatic tissues in esterase activity. Microsomal stability of the selected esters was evaluated by monitoring the disappearance of the substrate incubated in rat liver microsomes (RLM) at 50 μM concentration, in the presence of NADPH. In Table 4, the percentage of the remaining substrate, after incubation (t=60 min), with respect to the initial amount is reported. Overall, the compounds underwent a relevant metabolic transformation, and the substrate depletion ranged from 0 (for 76) to 100 % (for 70). This is mainly due to hydrolysis of the ester function, whereas the metabolites arising from the oxidation catalyzed by the NADPH‐dependent monooxygenase system were negligible from a quantitative point of view. Indeed, the main metabolite formed during the incubation of the esters was corresponding carboxyl derivative 37. […] Moreover, whereas CH2‐pyridin‐4‐yl ester 70 was completely metabolized, corresponding benzyl derivative 65 and piperonyl derivative 72 were more hydrolytically stable, and their residual substrates were 53 and 83 %, respectively. The hydrolytic stability of the selected esters was also evaluated by monitoring the depletion of the substrate incubated at a 50 μM concentration in mouse plasma over a period of 30 min. As expected, the plasmatic metabolic fate of the esters was characterized by the formation of 37 as the only metabolite (see Figure S4). The rate constant k [min^−1], derived for the substrate peak area versus time curve (single‐exponential decay equation—GraphPad Prism software, Inc., San Diego, CA (USA); see Figure S5) was used to calculate the in vitro half‐life t 1/2 [min], and the values are reported in Table 4.
Metabolic stability of PI3K inhibitors in RLM fraction
The standard incubation mixture (500 µL final volume), in 1.5 mL Eppendorf tubes, was carried out in a 50 mM TRIS-HCl buffer (pH 7.4) containing 3.3 mM MgCl2, 1.3 mM NADPNa2, 3.3 mM glucose 6-phosphate, 0.4 Units/mL glucose 6-phosphate dehydrogenase (NADPH regenerating system), acetonitrile as cosolvent (1% of final volume) and 50 µM of substrate. After pre-equilibration of the mixture, an appropriate volume of rat microsomal suspension was added to give a final protein concentration of 1 mg/mL. The mixture was shaken for 1 hour at 37°C and the reaction was quenched by diluting the samples with 500 µL of ice-cold acetonitrile. The samples were then centrifuged at 13,000 rpm for 10 min, and the supernatant was directly injected onto the HPLC column for analysis. Control incubations were performed without microsomes. […]
(§2) A Shimadzu HPLC system (Shimadzu, Kyoto, Japan), consisting of two LC-10AD Vp module pumps, an SLC-10A Vp system controller, an SIL-10AD Vp autosampler, and a DGU-14-A on-line degasser was used for the analysis. All the chromatographic separations were performed on a Phenomenex Luna C18 5µm (150 x 4.6 mm i.d.) (Phenomenex srl, Castel Bolognese, Italy) as a stationary phase protected by a Luna C18 SecurityGuard (Phenomenex srl). The SPD-M10Avp photodiode array detector was used to detect the analyte at 254 nm. LC Solution 1.24 software was used to process the chromatograms. Aliquots (20 µL) of supernatants obtained from incubations were injected onto the HPLC system and eluted with a mobile phase (flow rate: 1 mL/min) consisting of solvent A- 0.5% aqueous formic acid solution and solvent B- acetonitrile/methanol 80:20.
(§3) The eluants were filtered through a 0.45-µm pore size polyvinylidene difluoride membrane […]
(§4) The following gradients programs were used: […]
For orientation: Liver microsomes are vesicles of endoplasmic reticulum, rich in cytochrome P450 enzymes.

Data set [2] is described as follows: stability in mouse plasma. The class given is in vitro ADME. The note with it: 50 μM substrate; for half-life at 50 µM: mouse, mouse plasma, 30 min incubation, 37 °C, read-out: Mouse plasma t 1/2; for hydrolysis by mouse plasma hydrolases: 30 min. As to the method:
as §1, with “4. […]” for “4.”
Stability of PI3K inhibitors in mouse plasma
An aliquot of 460 µL of blank plasma spiked with substrate (50 µM, final concentration, DMSO 5%) was incubated at 37 °C for 30 minutes. Aliquots (70 µL) of the incubation took at 0-2-5-10-20, and 30 minutes were diluted with 140 µL of acetonitrile, homogenized, and centrifuged at 13,000 rpm for five minutes. Supernatants (20 µL) were injected onto HPLC.
as §2, §3, §4

Some results are limits rather than exact numbers.

On to `CCOC(=O)c1cccc(Cn2cc(-c3cccc4c(=O)cc(N5CCOCC5)[nH]c34)nn2)c1` [Compound 67, Ethyl 3‐{[4‐(2‐morpholino‐4‐oxo‐1,4‐dihydroquinolin‐8‐yl)‐1H‐1,2,3‐triazol‐1‐yl]methyl}benzoate], for which the Cell proliferation result with PC3 cells was “active”. Further, in data set [1], the “Residual microsomal substrate (t=60 min)” value amounted to 24%.
In the case of `O=C(OCc1ccccc1)c1cccc(Cn2cc(-c3cccc4c(=O)cc(N5CCOCC5)[nH]c34)nn2)c1` [Compound 65, Benzyl 3‐{[4‐(2‐morpholino‐4‐oxo‐1,4‐dihydroquinolin‐8‐yl)‐1H‐1,2,3‐triazol‐1‐yl]methyl}benzoate], the Cell proliferation result in the data set on PC3 cells is given as “active”. In data set [2], the half-life at 50 µM is below 1 min. Further, in data set [1], the “Residual microsomal substrate (t=60 min)” value was determined as 53%.
`O=C(OCc1ccncc1)c1cccc(Cn2cc(-c3cccc4c(=O)cc(N5CCOCC5)[nH]c34)nn2)c1` [Compound 70, Pyridin‐4‐ylmethyl 3‐{[4‐(2‐morpholino‐4‐oxo‐1,4‐dihydroquinolin‐8‐yl)‐1H‐1,2,3‐triazol‐1‐yl]methyl}benzoate]: in the data set on PC3 cells, the Cell proliferation entry was “active”. Moreover, the half-life at 50 µM in data set [2] is below 1 min. For the same compound, in data set [1], the substrate depletion was 100% and the “Residual microsomal substrate (t=60 min)” value is given as 0%.
In the case of `O=C(OCCN1CCOCC1)c1cccc(Cn2cc(-c3cccc4c(=O)cc(N5CCOCC5)[nH]c34)nn2)c1` [Compound 71, 2‐Morpholinoethyl 3‐{[4‐(2‐morpholino‐4‐oxo‐1,4‐dihydroquinolin‐8‐yl)‐1H‐1,2,3‐triazol‐1‐yl]methyl}benzoate], the Cell proliferation entry in the data set on PC3 cells is “active”. Moreover, the half-life at 50 µM in data set [2] is 2.5 min. Also, the “Residual microsomal substrate (t=60 min)” value in data set [1] was 18%.
For `O=C(OCc1ccc2c(c1)OCO2)c1cccc(Cn2cc(-c3cccc4c(=O)cc(N5CCOCC5)[nH]c34)nn2)c1` [Compound 72, Benzo[d][1,3]dioxol‐5‐yl methyl 3‐{[4‐(2‐morpholino‐4‐oxo‐1,4‐dihydroquinolin‐8‐yl)‐1H‐1,2,3‐triazol‐1‐yl]methyl}benzoate], the Cell proliferation result with PC3 cells is on record as “active”. In addition, the half-life at 50 µM in data set [2] is below 1 min. The “Residual microsomal substrate (t=60 min)” value in data set [1] was 83%.
As for `CCCCCCCCCCCCCCCCCCOC(=O)c1cccc(Cn2cc(-c3cccc4c(=O)cc(N5CCOCC5)[nH]c34)nn2)c1` [Compound 76, Octadecyl 3‐{[4‐(2‐morpholino‐4‐oxo‐1,4‐dihydroquinolin‐8‐yl)‐1H‐1,2,3‐triazol‐1‐yl]methyl}benzoate], in the data set with PC3 cells, the Cell proliferation entry is “inactive”. Besides, in data set [2], the “hydrolysis by mouse plasma hydrolases” value is given as “inert to the mouse plasma hydrolases”. Further, in data set [1], the substrate depletion is reported as 0% and the “Residual microsomal substrate (t=60 min)” value is on record as 100%.
For the compound `CC(C)OC(=O)c1cccc(Cn2cc(-c3cccc4c(=O)cc(N5CCOCC5)[nH]c34)nn2)c1` [Compound 66, Isopropyl 3‐{[4‐(2‐morpholino‐4‐oxo‐1,4‐dihydroquinolin‐8‐yl)‐1H‐1,2,3‐triazol‐1‐yl]methyl}benzoate], the Cell proliferation result with PC3 cells is reported as “active”. The half-life at 50 µM in data set [2] turned out to be 15.1 min. Further, the “Residual microsomal substrate (t=60 min)” value in data set [1] was found to be 16%.
For `CCCCCCCCCCCOC(=O)c1cccc(Cn2cc(-c3cccc4c(=O)cc(N5CCOCC5)[nH]c34)nn2)c1` [Compound 75, Undecyl 3‐{[4‐(2‐morpholino‐4‐oxo‐1,4‐dihydroquinolin‐8‐yl)‐1H‐1,2,3‐triazol‐1‐yl]methyl}benzoate] the same measures were “inactive”, 4.4 min and 80%.
Take `CCCCOC(=O)c1cccc(Cn2cc(-c3cccc4c(=O)cc(N5CCOCC5)[nH]c34)nn2)c1` [Compound 68, Butyl 3‐{[4‐(2‐morpholino‐4‐oxo‐1,4‐dihydroquinolin‐8‐yl)‐1H‐1,2,3‐triazol‐1‐yl]methyl}benzoate]: the Cell proliferation result in the data set with PC3 cells is on record as “active”. In addition, in data set [2], the half-life at 50 µM was below 1 min. In data set [1], the “Residual microsomal substrate (t=60 min)” value was 53%.
Consider `CC(C)CCOC(=O)c1cccc(Cn2cc(-c3cccc4c(=O)cc(N5CCOCC5)[nH]c34)nn2)c1` [Compound 73, Isopentyl 3‐{[4‐(2‐morpholino‐4‐oxo‐1,4‐dihydroquinolin‐8‐yl)‐1H‐1,2,3‐triazol‐1‐yl]methyl}benzoate], for which, in the data set with PC3 cells, the Cell proliferation entry is recorded as “active”. Besides, in data set [2], the half-life at 50 µM is below 1 min. Besides, the “Residual microsomal substrate (t=60 min)” value in data set [1] amounted to 39%.
Take `CC(C)(C)OC(=O)c1cccc(Cn2cc(-c3cccc4c(=O)cc(N5CCOCC5)[nH]c34)nn2)c1` [Compound 69, tert ‐Butyl 3‐{[4‐(2‐morpholino‐4‐oxo‐1,4‐dihydroquinolin‐8‐yl)‐1H‐1,2,3‐triazol‐1‐yl]methyl}benzoate]: the Cell proliferation entry in the data set on PC3 cells is “inactive”. Besides, the “hydrolysis by mouse plasma hydrolases” value in data set [2] is listed as “inert to the mouse plasma hydrolases”. In addition, in data set [1], the “Residual microsomal substrate (t=60 min)” value is recorded as 79%.
